Assay results published in patent US10642156B2, “Resist base material, resist composition and method for forming resist pattern” (Mitsubishi Gas Chemical Company, Inc., priority 2015, dated 2020).

Assays:
[1] = Test on safe solvent solubility of compound; type: physicochemical; details: 23° C., ultrasound 30 minutes, visually observed; for Safety solvent solubility test CHN: cyclohexanone (CHN); for Safety solvent solubility test PGME: propylene glycol monomethyl ether (PGME); for Safety solvent solubility test PGMEA: propylene glycol monomethyl ether acetate (PGMEA)
Description: (1) Test on Safe Solvent Solubility of Compound
The solubility of the compound in cyclohexanone (CHN), propylene glycol monomethyl ether (PGME), and propylene glycol monomethyl ether acetate (PGMEA) was evaluated according to the following standard using the dissolution amount in each solvent. For the measurement of the dissolution amount, the compound was precisely weighed into a test tube at 23° C., and the target solvent was added thereto at a predetermined concentration. Ultrasound was applied for 30 minutes in an ultrasonic cleaning machine. Then, the state of the liquid was visually observed.
Evaluation A: 20% by mass≤dissolution amount
Evaluation B: 10% by mass≤dissolution amount<20.0% by mass
Evaluation C: Dissolution amount<10% by mass

[2] = 10% thermal reduction temperature by thermogravimetry (TG); type: physicochemical; details: nitrogen gas stream, 10° C./min to 500° C.
Description: (3) Thermal Reduction Temperature
“EXSTAR 6000 DSC” apparatus manufactured by SII NanoTechnology Inc. was used. About 5 mg of a sample was placed in an unsealed container made of aluminum, and the temperature was raised to 500° C. at a temperature increase rate of 10° C./min in a nitrogen gas (30 mL/min) stream. In this operation, 10% thermal reduction temperature was measured.

SMILES | Safety solvent solubility test CHN [1] | Safety solvent solubility test PGME [1] | Safety solvent solubility test PGMEA [1] | 10% thermal reduction temperature [2] [°C]
Oc1ccc(C2=CC(C(c3ccc(I)cc3)c3cc(-c4ccc(O)cc4)ccc3O)C(O)C=C2)cc1 (stereo not drawn) [BiF-I-1] | A (Evaluation A: 20% by mass≤dissolution amount) | A (Evaluation A: 20% by mass≤dissolution amount) | A (Evaluation A: 20% by mass≤dissolution amount) | ≥ 300
COc1cc(I)cc(C(c2cc(C3C=CC(O)=CC3)ccc2O)C2C=C(C3=CCC(O)C=C3)C=CC2O)c1 (stereo not drawn) [BiF-I-2] | A (Evaluation A: 20% by mass≤dissolution amount) | A (Evaluation A: 20% by mass≤dissolution amount) | A (Evaluation A: 20% by mass≤dissolution amount) | ≥ 300
Oc1ccc(-c2ccc(O)c(C(c3cccc(I)c3)c3cc(-c4ccc(O)cc4)ccc3O)c2)cc1 [BiF-I-3] | A (Evaluation A: 20% by mass≤dissolution amount) | A (Evaluation A: 20% by mass≤dissolution amount) | A (Evaluation A: 20% by mass≤dissolution amount) | ≥ 300
